Literature values as cited in US20030060503A1, “Nutritional supplements for mature pets” (Juvenon, Inc., priority 2000, published 2003).
Like-named read-outs stand apart in the source and are kept apart here.

Key:
[1] = system: carnitine-acetyl-carnitine exchange across the inner mitochondrial membrane
[2] = daily supplements of up to 200 mg for 6-12 months and 100 mg daily for up to 6 y
[3] = system: programmed cell death, or apoptosis; conditions: through its action in the mitochondria
aged rats = conditions: supplementation
oxidant production = conditions: carnitine supplementation
skeletal muscle = conditions: older individuals (40-73), 20 g/day, one week

C[N+](C)(C)C[C@H](O)CC(=O)[O-] [L-carnitine]
age-related decrease of carnitine-acetyl-carnitine exchange activity [1]: slow or reverse this age-related dysfunction

COC1=C(OC)C(=O)C(C/C=C(\C)CC/C=C(\C)CC/C=C(\C)CC/C=C(\C)CC/C=C(\C)CC/C=C(\C)CC/C=C(\C)CC/C=C(\C)CC/C=C(\C)CCC=C(C)C)=C(C)C1=O [Q10, coenzyme Q10]
adverse effects [2]: No important adverse effects
programmed cell death (apoptosis) [3]: appears to block programmed cell death
recovery of function in older hearts (senescent myocardium): corrected the age-specific diminished recovery of function in older hearts
tolerance of senescent myocardium to aerobic and ischemic stress (senescent myocardium; human atrial tissue and rats): improves the tolerance of the senescent myocardium to aerobic and ischemic stress

O=C(O)CCCC[C@@H]1CCSS1 [R-α-lipoic acid]
ambulatory activity (aged rats; aged rats): triple the ambulatory activity of aged rats
age-related increase in oxidants (aged rats): significantly lower the age-related increase in oxidants
glutathione and ascorbic acid levels (aged rats): restore glutathione and ascorbic acid levels to youthful levels
mitochondrial membrane potential (aged rats): restore the age-related decline in mitochondrial membrane potential
oxygen consumption (aged rats): reverse the age-related decrease in oxygen consumption

C[N+](C)(C)CC(O)CC(=O)[O-] (centres unmarked) [carnitine]
cell antioxidants (oxidant production): decreased cell antioxidants markedly
increase in oxidant production (oxidant production): 30%

CN(CC(=O)O)C(=N)N [creatine]
safety (1.5 g-25 g/day for at least a year): safe
adverse effects (athletes, doses up to 75 grams a day for years): without known adverse effects, aside from weight gain
skeletal muscle strength and endurance (skeletal muscle): increased skeletal muscle strength and endurance

COc1c(O)c(C)c(C/C=C(\C)CC/C=C(\C)CC/C=C(\C)CC/C=C(\C)CC/C=C(\C)CC/C=C(\C)CC/C=C(\C)CC/C=C(\C)CC/C=C(\C)CCC=C(C)C)c(O)c1OC [ubiquinol-10]
oxidative damage to DNA (human lymphocytes): appears to protect human lymphocytes from oxidative damage to DNA

acyl-L-carnitine
age-related decrease of carnitine-acetyl-carnitine exchange activity [1]: slow or reverse this age-related dysfunction
